Patent publication US8030547B2, “Gene coding for acetolactate synthase” (priority 2002, dated 2011)

Experiments:
[1] = test system: mutant ALS protein of Vg line; assay: Herbicide sensitivity of partially purified ALS protein (ALS activity inhibition), Vg line; assay type: biochemical, Oryza sativa var. Kinmaze; conditions: I50 of the resistant mutant divided by I50 of the wild type
Procedure: (§1) First, 200 g or more of resistant mutant was prepared by a liquid culture method (no supplementation with bispyribac-sodium), using a composition as shown in Table 3 excluding Gelrite. Then, about 150 g of the resistant mutant was homogenized using Hiscotron in a volume of buffer-1 [100 mM potassium phosphate buffer (pH 7.5) containing 20% (v/v) glycerol, […] thiamin pyrophosphate (TPP), 10 μM flavin adenine dinucleotide (FAD), 0.5 mM MgCl2, and a volume of polyvinyl polypyrrolidone one-tenth that of tissue volume] 3-fold greater than tissue volume. The homogenate was filtered through nylon gauze, and then centrifuged at 15000×g for 20 minutes. Ammonium sulfate was added to the centrifuged supernatant to 50% saturation, and then allowed to stand in ice for approximately 1 hour. The mixture was again centrifuged at 15000×g for 20 minutes, and then the precipitated fraction was dissolved in approximately 30 ml of buffer-2 [10 mM Tris hydrochloric acid buffer (pH 7.5) containing 20% (v/v) glycerol, 0.5 mM TPP and 0.5 mM MgCl2]. The mixture was again centrifuged at 15000×g for 20 minutes, and then the supernatant fraction was applied to a Sephadex G-25 (Amersham Bioscience). About 40 ml of the fraction that had passed through the column was collected as a crude enzyme solution.
(§2) Next, the protein concentration of the crude enzyme solution was measured by the Bradford method according to the manual of Bio-Rad Protein Assay. The crude enzyme solution was then filtered through a Whatman filter (Whatman), and then the crude enzyme solution in an appropriate protein amount (10 to 15 ml) was applied to three vertically-connected HiTrap Q columns (Amersham Bioscience) using a FPLC device (Amersham Bioscience). After protein component was adsorbed using HiTrap Q, unadsorbed fractions were washed out using buffer-2 having a volume 3 to 5 fold greater than the bed volume. Then, the adsorbed protein component was eluted using an eluate having a volume 10 fold greater than the bed volume (150 ml). Here, the eluate was prepared by dissolving KCl with a linear concentration gradient (0 to 0.4 M) into buffer-2. The eluate containing the eluted protein component was apportioned, 5 ml each, into a plurality of test tubes for apportioning. Further, to stabilize ALS protein contained in the eluted protein component, 0.5 ml of buffer-2 containing 20 mM sodium pyruvate had been previously added to each test tube for apportioning.
(§3) ALS activity resulting from the mutant ALS protein contained in the eluted fractions apportioned into each test tube for apportioning was measured as follows. A reaction solution to be used in a measurement reaction was prepared by mixing an eluted fraction to be measured with a solution comprising 20 mM sodium pyruvate, 0.5 mM TPP, 0.5 mM MgCl2, 10 μM FAD and 20 mM potassium phosphate buffer (pH 7.5). One ml of this reaction solution was used. After the eluted fraction to be measured was added, the measurement reaction was performed at 30° C. for 40 to 60 minutes. Then, the reaction was stopped by addition of 0.1 ml of 6N sulfuric acid (or 0.25 N sodium hydroxide).
(§4) After the reaction was stopped, the reaction solution was incubated at 60° C. for 10 minutes, thereby converting acetolactate contained in the reaction solution to acetoin.
(§5) Then, to quantify acetoin contained in the reaction solution, 1 ml of 0.5% (w/v) creatine and 1 ml of 5% (w/v) α-naphthol dissolved in 2.5 N sodium hydroxide was added to the reaction solution, followed by incubation at 37° C. for 10 minutes. Acetoin was then quantified by color comparison of the absorbance (at 525 nm) of the reaction solution, thereby evaluating ALS activity. In addition, since the reaction solution contained a small amount of sodium pyruvate, reaction time 0 was used as control.
(§6) Using the enzyme solution containing the mutant ALS protein, sensitivity of the mutant ALS protein to bispyribac-sodium, chlorsulfuron and imazaquin was examined. […]

[2] = molecular target: T1, mutant ALS protein of Vg line (Oryza sativa subsp. japonica, UniProt Q6K2E8); assay: as above; assay type: biochemical, Oryza sativa var. Kinmaze; conditions: read-out: I50 (nM) Vg; partially purified ALS, 30° C., probit analysis
T1 construct: other: partially purified ALS, 30° C., probit analysis
Procedure: as §1, §2, §3, §4, §5, §6

[3] = molecular target: T2, GST fusion P171H/W548L mutant ALS protein (Oryza sativa subsp. japonica, UniProt Q6K2E8, P171H/W548L); assay: Herbicide sensitivity of ALS protein expressed in E. coli (crude enzyme solution), P171H/W548L; assay type: biochemical, rice (Oryza sativa var. Kinmaze); conditions: for RS ratio/ predicted RS ratio / Predicted RS ratio: P171H/W548L mutant; for RS ratio: P171H/W548L mutant vs wild type; for Predicted RS ratio: product of RS ratios of the 1-point mutants; for inhibition at 100 µM: read-out: inhibition % at the highest concentration among the concentrations tested, P171H/W548L mutant, in 100 μM
T2 construct: made in house; host or cells: E. coli, pGEX-2T(ALS-P171H, W548L mutant); crude supernatant
Procedure: as §3, §4, §5
E. coli transformed with pGEX-2T(ALS-wild) constructed in Example 3(5), E. coli transformed with pGEX-2T(ALS-W548L mutant) constructed in Example 5, E. coli transformed with pGEX-2T(ALS-S627I mutant) constructed in Example 5, E. coli transformed with pGEX-2T(ALS P171H mutant) constructed in Example 6, E. coli transformed with pGEX-2T(ALS R172S mutant) constructed in Example 6, E. coli transformed with pGEX-2T(ALS P171H, R172S mutant) constructed in Example 7, E. coli transformed with pGEX-2T(ALS-P171H, W548L mutant) constructed in Example 8, E. coli transformed with pGEX-2T(ALS-P171H, S627I mutant) constructed in Example 8, and E. coli transformed with pGEX-2T(ALS-P171H, W548L, S627I mutant) constructed in Example 9 were respectively shake-cultured (pre-culture) at 27° C. in 2 ml of LB liquid medium containing ampicillin. These types of E. coli were respectively cultured in 250 ml of LB liquid medium containing ampicillin using 1 ml of the pre-culture solution. After culturing overnight, 1 mM IPTG was added to the media, and then culturing was performed for a further 3 to 4 hours, so that the expression of GST fusion protein was induced. In addition, the cells were stored at −80° C. after washing.
Preparation and purification of ALS from E. coli were performed by the following method. First, the pellet of the transformant E. coli stored at −80° C. was suspended in ALS extraction buffer (potassium phosphate buffer (pH 7.5) containing 30% glycerol and 0.5 mM MgCl2). Specifically, 2.5 ml of the buffer was added to the pellet obtained from 50 ml of the culture solution. The suspension was subjected to ultrasonication (Heat Systems-Ultrasonics, Sonicator W-225R, micro chip, output control 8, interval of approximately 1 second, twice (40 seconds each)), and subjected to centrifugation at 15000×g, 4° C. for 20 minutes, thereby obtaining the supernatant as a crude enzyme solution.
Herbicide sensitivity of the wild type ALS protein and that of mutant ALS protein were examined using the 9 types of crude enzyme solutions obtained in Example 10. Herbicide sensitivity test was performed according to procedures almost the same as those in Example 2. However, in this example, reaction temperature was 37° C., reaction time was 30 minutes, and 10 mM valine was added to the reaction solution to inhibit ALS activity derived from E. coli. Further, three types of herbicides, bispyribac-sodium, pyrithiobac-sodium, and pyriminobac, were used as PC herbicides; chlorsulfuron was used as a sulfonylurea herbicide; and imazaquin was used as an imidazolinon herbicide. […]

T2 sequence (Q6K2E8 44-644 P171H/W548L): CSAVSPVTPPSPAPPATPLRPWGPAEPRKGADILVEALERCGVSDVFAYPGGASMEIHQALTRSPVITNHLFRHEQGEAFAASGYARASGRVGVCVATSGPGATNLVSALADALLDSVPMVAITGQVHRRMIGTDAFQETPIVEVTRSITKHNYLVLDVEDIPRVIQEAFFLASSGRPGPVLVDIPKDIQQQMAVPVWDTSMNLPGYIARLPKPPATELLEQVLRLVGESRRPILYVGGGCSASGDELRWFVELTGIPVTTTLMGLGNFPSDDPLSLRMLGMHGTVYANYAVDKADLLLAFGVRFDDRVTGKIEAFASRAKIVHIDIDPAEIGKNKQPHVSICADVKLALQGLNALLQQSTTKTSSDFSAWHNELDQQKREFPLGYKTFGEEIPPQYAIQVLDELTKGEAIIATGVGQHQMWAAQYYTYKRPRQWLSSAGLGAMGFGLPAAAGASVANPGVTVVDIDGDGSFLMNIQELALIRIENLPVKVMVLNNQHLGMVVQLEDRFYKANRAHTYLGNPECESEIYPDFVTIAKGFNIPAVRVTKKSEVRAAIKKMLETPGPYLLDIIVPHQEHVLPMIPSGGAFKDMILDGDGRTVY
T1 sequence (Q6K2E8 whole entry W548L, form open): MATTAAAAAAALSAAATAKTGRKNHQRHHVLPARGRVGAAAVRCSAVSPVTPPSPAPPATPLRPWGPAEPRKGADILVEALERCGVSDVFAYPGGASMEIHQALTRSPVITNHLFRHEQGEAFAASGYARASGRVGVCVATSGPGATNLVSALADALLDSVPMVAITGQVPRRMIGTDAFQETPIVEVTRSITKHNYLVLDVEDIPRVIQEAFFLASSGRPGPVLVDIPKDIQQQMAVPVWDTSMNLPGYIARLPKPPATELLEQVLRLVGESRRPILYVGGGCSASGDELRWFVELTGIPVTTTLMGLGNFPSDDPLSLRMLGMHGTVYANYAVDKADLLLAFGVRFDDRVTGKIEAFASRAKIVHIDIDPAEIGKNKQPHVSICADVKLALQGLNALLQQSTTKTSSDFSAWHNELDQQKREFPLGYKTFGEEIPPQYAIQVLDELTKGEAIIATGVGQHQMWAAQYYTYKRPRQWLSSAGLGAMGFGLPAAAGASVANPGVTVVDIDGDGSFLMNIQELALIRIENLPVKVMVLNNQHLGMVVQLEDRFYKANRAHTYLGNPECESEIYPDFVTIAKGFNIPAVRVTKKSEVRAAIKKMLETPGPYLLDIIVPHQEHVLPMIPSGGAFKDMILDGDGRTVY

Row | SMILES | RS ratio Vg [1] | IC50 [2] [nM] | RS ratio/ predicted RS ratio [3] | RS ratio [3] | Predicted RS ratio [3] | inhibition at 100 µM [3] [%]
1 | COc1cc(OC)nc(Oc2cccc(Oc3nc(OC)cc(OC)n3)c2C(=O)O)n1 [bispyribac-sodium] | 17.3 | 97.2 | >3.3 | >15000 | 4500 | 5
2 | COc1nc(C)nc(NC(=O)NS(=O)(=O)c2ccccc2Cl)n1 [chlorsulfuron] | 28.6 | 495 | >0.18 | >7700 | 65000 | 16
3 | CC(C)C1(C)N=C(c2nc3ccccc3cc2C(=O)O)NC1=O (centres unmarked) [imazaquin] | 29.8 | 44100 |  | >45 | >68 | 13
